Experimental data taken from article PMC9266460, “KSK-74: Dual Histamine H3 and Sigma-2 Receptor Ligand with Anti-Obesity Potential” (International Journal of Molecular Sciences, 2022).

Tests used:
[1] = target: H3 histamine receptor (Homo sapiens, UniProt Q9Y5N1); experiment: Intrinsic activity at H3R, Aequoscreen assay; format: cell-based
Protocol: Intrinsic activity studies were performed using two methods, Aequoscreen and LANCE Ultra cAMP assays, according to the manufacturer of the ready-to-use cells with stable expressions of the H3 histamine receptor (Perkin Elmer).
The Aequoscreen technology uses recombinant cell lines with stable co-expression of apoaequorin and a GPCR as a system to detect activation of the receptor, following the addition of an agonist, via the measurement of light emission. For the measurement, cells (frozen, ready to use) were thawed and resuspended in 10 mL of assay buffer containing 5 μM of coelenterazine h. The cell suspension was then placed in a 10 mL Falcon tube, fixed on a rotating wheel, and incubated overnight at RT° in the dark. Cells were diluted with assay buffer at 5000 cells/20 µL. Agonistic ligands 2 × (50 μL/well), diluted in assay buffer, were prepared in 1/2 area white polystyrene plates, and 50 μL of cell suspension was dispersed on the ligands using the injector. The light emission was recorded for 20 s. Cells were incubated with antagonist for 15 min at RT°. Then, 50 µL of agonist (final concentration equal to 3 × EC80) was injected into the mixture of cells and antagonist and light emission was recorded for 20 s.

[2] = target: T1, H3R (Homo sapiens, UniProt Q9Y5N1); experiment: Affinity at the H3R (literature values); format: binding; conditions: H3R Ki relative to sigma-2 Ki
T1 construct: the Aequoscreen line co-expresses apoaequorin
T1 sequence (Q9Y5N1 whole entry): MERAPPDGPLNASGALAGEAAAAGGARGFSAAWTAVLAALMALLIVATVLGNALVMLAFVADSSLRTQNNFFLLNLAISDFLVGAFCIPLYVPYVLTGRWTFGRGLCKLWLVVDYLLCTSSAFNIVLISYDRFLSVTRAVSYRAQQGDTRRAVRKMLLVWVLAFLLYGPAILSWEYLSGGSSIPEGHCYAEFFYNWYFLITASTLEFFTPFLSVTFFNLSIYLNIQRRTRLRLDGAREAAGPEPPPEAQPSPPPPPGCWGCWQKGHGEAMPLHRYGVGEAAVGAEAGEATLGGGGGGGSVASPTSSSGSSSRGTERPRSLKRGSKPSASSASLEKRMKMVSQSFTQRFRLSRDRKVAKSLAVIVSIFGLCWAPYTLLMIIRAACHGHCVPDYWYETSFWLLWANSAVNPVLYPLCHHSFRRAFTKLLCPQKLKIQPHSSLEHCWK

H3 histamine receptor, sequence (Q9Y5N1 whole entry): as above

IC50 [1] | affinity ratio H3/sigma-2 receptors [2] | Compound
1.49 ± 0.2 nM | – | CCC(=O)c1ccc(OCCCCCCN2CCN(c3ccncc3)CC2)cc1 [KSK-60]
31.9 ± 0.5 nM | 0.59 | CCC(=O)c1ccc(OCCCCCCCCN2CCN(c3ccncc3)CC2)cc1 [KSK-74]
